Assay results reported in patent US20050112079A1, “Depilatories and agents for external use” (KAO CORPORATION, priority 1999, published 2005).
Where no end group is shown, it is not given here.

How the values were obtained:
[1] = system: hair at the dorsal part of a guinea pig; assay: Depilation inducing effects of endothelin, intracutaneous administration; format: in vivo; settings: 0.3 μg intracutaneous (50 μL/site), 10 days after the administration
Description: (§1) A solution of endothelin-1 (0.3 μg) in phosphate buffer solution (PBS), which contained 0.1% of bovine serum albumin (BSA), was intracutaneously administered (at 50 μL/site) to the dorsal part of a guinea pig.

[2] = system: growth-phase hair follicles; assay: Growth-phase hair follicle inhibitory effects, number of hair shafts grown per unit area; format: in vivo; settings: guinea pig dorsal, 1 μg intracutaneous, fifth day after the administration (FIG. 1)
Description: Solutions (1 μg, each) of endothelin-1, endothelin-2 and endotherin-3 in aliquots of phosphate buffer solution (PBS), which contained 0.1% of bovine serum albumin (BSA), were intracutaneously administered (at 50 μL/site) to the dorsal parts of guinea pigs, respectively, from which hair had been cut off by a hair clipper. Three days after the administration, hair was again cut off by a hair clipper from the administered sites. Two days after the cutting, the numbers of hair shafts grown per unit area at the administered sites were counted.

[3] = system: growth-phase hair follicle; assay: Structural changes of hair follicle structure, hematoxylin-eosin stained dorsal skin; format: in vivo; settings: guinea pig, 0.3 μg intracutaneous
Description: as §1, with “[…]” for “0.1%”, “pig. After that, samples were collected day after day from the administered dorsal skin, and tissue samples were prepared by hematoxylin-eosin staining.” for “pig.”

[4] = system: hair follicle organs in growth phase isolated from human scalp tissue; assay: Growth inhibitory effects on organ-cultured hair follicles; format: cell-based
Description: From a human scalp tissue, hair follicle organs in growth phase were surgically isolated under a stereomicroscope. Following a conventional procedure [Philpott M. P., et al., J. Cell Sci., 97, 463-471 (1990)], the isolated hair follicles were subjected to organ culture. Described specifically, endothelin-1 was added to William's E medium which contained L-glutamine (2 mM), hydrocortisone (10 ng/mL), insulin (10 μg/mL), sodium selenite (10 ng/mL) and transferrin (10 μg/mL).

regrowth of dorsal hair = assay: Hair growth test in mice, application to depilated skin; format: in vivo, C3H/HeNCrj mouse; settings: mouse, 0.5 mg in 2.5 mL PEG 400/PEG 3350 (95/5), 25 μL/application once a day over 2 weeks; regrown hair area/depilated area×100
Description: Endothelin-1 (0.5 mg) was dissolved in a mixed solution (2.5 mL) of polyethylene glycol 400 (average molecular weight: 400) and polyethylene glycol 3350 (average molecular weight: 3,350) (mixing ratio: 95/5) to prepare a hair growth inhibitor. Dorsal hair of each 8-week old C3H/HeNCrj mouse was removed with a depilatory cream (over an area of 2×4 cm^2), and the hair growth inhibitor was applied to the depilated site once a day at a dose of 25 μL/application over 2 weeks. A group in which only the solvent was similarly applied was employed as a control group. To observe regrowth of hair, the above-described depilated site on day 14 after the depilation was photographed at a predetermined fixed magnification, and the percentage of a regrown hair area (regrown hair area/depilated area×100) was determined using an image analyzer.

Row | Compound | Depilation at the administered site [1] | Number of hair shafts grown per unit area at the administered site [2] | Hair follicle histology ([3]; 1st day after the administration (FIG. 2)) | Hair follicle histology ([3]; 3rd day after the administration (FIG. 2)) | Grown hair follicle length versus control group ([4]; day 4 of incubation and the subsequent days (FIG. 3)) | Structural change of incubated hair follicles ([4]; during the incubation period (FIG. 4)) | Percentage of regrown hair area on day 14 after depilation (regrowth of dorsal hair)
1 | CC[C@H](C)[C@H](NC(=O)[C@H](CC(=O)O)NC(=O)[C@H](CC(C)C)NC(=O)[C@H](Cc1c[nH]cn1)NC(=O)[C@@H]1CSSC[C@H](N)C(=O)N[C@@H](CO)C(=O)N[C@H]2CSSC[C@H](NC(=O)[C@H](CCC(=O)O)NC(=O)[C@H](CCCCN)NC(=O)[C@H](CC(=O)O)NC(=O)[C@H](CCSC)NC(=O)[C@H](CC(C)C)NC(=O)[C@H](CO)NC(=O)[C@H](CO)NC2=O)C(=O)N[C@@H](C(C)C)C(=O)N[C@@H](Cc2ccc(O)cc2)C(=O)N[C@@H](Cc2ccccc2)C(=O)N1)C(=O)N[C@H](C(=O)N[C@@H](Cc1c[nH]c2ccccc12)C(=O)O)[C@@H](C)CC [Endothelin-1, endothelin-1] | hair shaft falling-off and formation of a marked depilation spot | significant (p<0.01) decrease in the number of hair shafts | regressed image of a growth-phase hair follicle | image of a follicular tissue in transition phase | significant hair growth inhibitory effects | structural change of the endothelin-treated, growth-phase hair follicles into those similar to resting-phase hair follicles | 2.22 Percentage
2 | endothelin-2 (CSCSSWLDKECVYFCHLDIIW; ends and bridges not checked; cysteine pairing not given here; UniProt P20800 49-69, looked up) [isoform of endothelin, a peptide composed of 21 amino acid residues] |  | significant (p<0.01) decrease in the number of hair shafts |  |  |  |  | 
3 | endothelin-3 (CTCFTYKDKECVYYCHLDIIW; ends and bridges not checked; cysteine pairing not given here; UniProt P14138 97-117, looked up) [endotherin-3, isoform of endothelin, a peptide composed of 21 amino acid residues] |  | significant (p<0.01) decrease in the number of hair shafts |  |  |  |  | 
